Here are results for three compounds from patent US8044042B2, “Thienotriazolodiazepine compound and medicinal use thereof” (Mitsubishi Tanabe Pharma Corporation, priority 2005, dated 2011).

Where two headings read alike, the source gives them in different places.

For experiment [1], the system named is Mouse Graft-Versus-Host Reaction (GvHR). The experiment is described as follows: Mouse graft-versus-host reaction (GvHR). As to conditions: P <0.05 vs vehicle. The format is in vivo. On the procedure:
Cyclophosphamide (manufactured by Shionogi & Co., Ltd.) is administered to male BDF1 recipient mouse (8-week-old, CHARLES RIVER LABORATORIES JAPAN, INC.) at a dose of 300 mg/kg from the tail vein as a pretreatment at 24 hr prior to injection of spleen cells. The spleen was aseptically isolated from male C57BL/6 donor mouse (8-week-old, CHARLES RIVER LABORATORIES JAPAN, INC.), minced in RPMI1640 medium (manufactured by Sigma-Aldrich Ltd.), and passed through a stainless mesh to give a splenocyte single cell suspension. After removal of red blood cells by a hypotonic treatment using a mixed solution of 0.83% aqueous ammonium chloride and Tris-HCl buffer (pH 7.65) at 9:1, splenocytes were washed and suspended in physiological saline to give a splenocyte suspension. The prepared cells were injected at 1×10^8 cells/mouse into the tail vein to induce acute GvHR. The compound of the present invention or a pharmaceutically acceptable salt thereof was suspended or dissolved in 0.5% carboxymethylcellulose, and repetitively administered orally at a dose of 3-30 mg/kg body weight for 28 days from the day of splenocyte injection, and the influence on the survival time was evaluated. After induction of acute GvHR, the survival of each individual was determined every day, and the day of confirmed death was taken as the survival time of each individual. As for the survival time, log-rank test analysis was performed using the group administered with vehicle alone as a control, and the multiplicity was adjusted by the Holm's method, wherein p value of 0.05 or below was determined to be significant.

In experiment [2] the test system is TYPE II Collagen-Induced Arthritis in DBA/1J Mouse. The experiment is described as follows: Type II collagen-induced arthritis in DBA/1J mouse. The format is in vivo. As to conditions: 840 h. On the procedure: Bovine Type II collagen (purchased from collagen technical workshop) (100-200 μg) was mixed with complete Freund's adjuvant (manufactured by Sigma-Aldrich Ltd.) containing killed tuberculosis H37Ra. Using the resulting emulsion, 6 to 7-week-old male DBA/1J mice (CHARLES RIVER LABORATORIES JAPAN, INC.) were subcutaneously immunized at the tail root twice at 3 week intervals, whereby arthritis was developed. A test compound was suspended or dissolved in 0.5% carboxymethylcellulose (manufactured by Sigma-Aldrich Ltd.), and repetitively administered orally at a dose of 0.1-30 mg/kg body weight using an oral gavage needle for 2 weeks from the day of booster. As to this model, the symptoms of arthritis of four limbs were evaluated based on the following judgment criteria using the scores of from 0 to 4. The arthritis score of each mouse was shown by the total of the scores of four limbs (maximum: 16 points).
As regards the arthritis score, each group (n=5-6) was evaluated using an average value and mean error, with a group administered only with a vehicle being control, and Mann-Whitney U test was used for statistical analysis, wherein p value of 0.05 or below was determined to be significant. In the following, the suppressive action of the compound of the present invention on mouse collagen induced arthritis is shown by the suppressing rate (%) (1−(average arthritis score of compound administration group)/(average arthritis score of control group)×100) calculated from the average arthritis score at 35 days after the primary immunization.

Experiment [3] concerns Biphasic Auricular Edema in Egg Albumin-Induced Mouse. Nature of the experiment: Egg albumin-induced mouse biphasic auricular edema. In kind it is in vivo. The note with it: for suppressing rate (%) of auricular edema: 24 hr later, P <0.05; for suppressive action on edema (in words): 24 hr after induction with egg albumin. On the procedure: Using saline (0.5 ml) containing egg albumin (10 μg, manufactured by Sigma-Aldrich Ltd.) and 1 mg of aluminum hydroxide gel, 6 to 7-week-old male BALB/c mice (CHARLES RIVER LABORATORIES JAPAN, INC.) were intraperitoneally immunized. Two weeks later, egg albumin (1.25 μg) was intradermally injected into the auricle of the mice for challenge, whereby biphasic auricular edema was induced 1 hr and 24 hr after the challenge. The compound of the present invention or a pharmaceutically acceptable salt thereof was suspended or dissolved in 0.5% carboxymethylcellulose, and repetitively administered orally at a dose of 0.01-30 mg/kg body weight for 3 days, from 2 days before the antigen challenge to the day of challenge, using an oral gavage needle. As for this model, the thickness of the auricle of the mouse was measured using a dial gauge (manufactured by Ozaki MFG. Co. Ltd.) and used as an index of auricular edema. As regards the thickness of the auricle, each group (n=8) was evaluated using an average value and mean error, with a group administered only with a vehicle being control, and t-test was used for statistical analysis, wherein p value of 0.05 or below was determined to be significant.

Experiment [4] deals with CD28-dependent T cell growth. Nature of the experiment: Mouse T cell proliferation stimulated with anti-CD28 antibody and PMA (tritiumthymidine uptake). The format is cell-based. As to conditions: for IC50: T-cell, BALB/c mouse T cells, 10 ng/mL PMA and 250 ng/mL anti-CD28 antibody, tritiumthymidine uptake, read-out: CD28-dependent T cell growth suppressive action (IC50); for CD28-dependent T cell growth suppressive action (in words): mouse T cells stimulated with PMA and anti-CD28 antibody. On the procedure:
The spleen was aseptically isolated from 6-7-week-old male BALB/c mice (CHARLES RIVER LABORATORIES JAPAN, INC.), and splenocyte suspension was prepared using RPMI1640 medium (manufactured by Sigma-Aldrich Ltd.). After hemolysis by a hypotonic treatment using a mixed solution of 0.83% aqueous ammonium chloride and Tris-HCl buffer (pH 7.65) at 9:1, a T cell concentrated fraction was obtained using a T cell concentrated column (manufactured by R&D systems). A cell suspension prepared using RPMI1640 medium containing 10% fetal calf serum (FCS, manufactured by Sigma-Aldrich Ltd.) was added to a flat-bottomed 96 well microtest plate (manufactured by Becton, Dickinson and Company) at 5×10^5 cells/well. Furthermore, a test compound diluted with a medium to the final concentration of 1-10000 nmol/L, 10 ng/mL PMA (manufactured by Sigma-Aldrich Ltd.) and 250 ng/mL anti-CD28 antibody (manufactured by BD pharmingen) were added, and the mixture was cultured under the conditions of 37° C., 5% carbon dioxide, 95% air for 20 hr. After the completion of culture, tritiumthymidine (specific activity: […], manufactured by MP Biochemicals) was added at 18.5 kBq/well, and the mixture was further cultured for 4 hr. Then, the cells were recovered in a glass fiber filter using a cell harvester (manufactured by Molecular Devices Corp.), the radioactivity taken into the cells was measured using a plate scintillation counter (microbeta 1460, manufactured by PerkinElmer), based on which the mouse T cell growth induced by stimulation with PMA and anti-CD28 antibody was measured. To be specific, suppressing rate (%)=(1−(radioactivity (cpm) of well added with test compound)/(radioactivity (cpm) of well without addition of test compound))×100 was calculated from the average amount of tritiumthymidine uptake (cpm) of T cells in each well added with various concentrations of test compound. In addition, based on the dose response curve obtained by plotting the average tritiumthymidine uptake amount (cpm) or suppressing rate on the vertical axis and the concentration on the transverse axis, the concentration of the compound (IC50) suppressing the value to 50% of that of the control group was determined by nonlinear regression.

Experiment [5] deals with Experimental Autoimmune Encephalomyelitis in SJL/J Mouse. Nature of the experiment: Experimental autoimmune encephalomyelitis in SJL/J mouse. In kind it is in vivo. The note with it: 30 mg/kg oral, 3 weeks from immunization; average EAE score at 14 days after immunization; P <0.05. On the procedure:
The 139th-151st peptides (50 μg) of rat-derived proteolipid protein (manufactured by Bachem) was mixed with complete Freund's adjuvant containing killed tuberculosis H37Ra. Using the resulting emulsion, 10-week-old female SJL/J mice (CHARLES RIVER LABORATORIES JAPAN, INC.) were subcutaneously immunized on the back, whereby experimental autoimmune encephalomyelitis (EAE) was developed. The compound of the present invention or a pharmaceutically acceptable salt thereof was suspended or dissolved in 0.5% carboxymethylcellulose (manufactured by Sigma-Aldrich Ltd.), and repetitively administered orally at a dose of 3-30 mg/kg body weight using an oral gavage needle for 3 weeks from the day of immunization. As to this model, the symptoms of EAE were evaluated based on the following judgment criteria using the scores of from 0 to 5.
As regards the EAE score, each group (n=10) was evaluated using an average value and mean error, with a group administered only with a vehicle being control, and Mann-Whitney U test was used for statistical analysis, wherein p value of 0.05 or below was determined to be significant. In the following, the suppressive action of the compound of the present invention on EAE is shown by the suppressing rate (%) calculated from the average EAE score at 14 days after the immunization. […] From the results, the compound is considered effective for encephalomyelitis, multiple sclerosis and the like.

In experiment [6] the test system is Lupus Nephritis in MRL/MpJ-lpr/lpr Mouse. The experiment is described as follows: Lupus nephritis in spontaneous systemic lupus erythematosus model MRL/MpJ-lpr/lpr mouse. The format is in vivo. As to conditions: for urine protein score (mean ± SE): 4 weeks after administration, medium group 2.8 ± 0.2, P <0.05. On the procedure: The compound of the present invention or a pharmaceutically acceptable salt thereof was suspended or dissolved in 0.5% carboxymethylcellulose, and repetitively administered orally to male MRL/MpJ-lpr/lpr mice at 16 weeks after birth (CHARLES RIVER LABORATORIES JAPAN, INC.), that had developed lupus nephritis, at a dose of 1 and 3 mg/kg body weight for 4 weeks using an oral gavage needle. During the dosing period, urine-protein level was scored once a week using Ames urine test paper (Albustix (registered trademark), Bayer, Ltd.•Sankyo Corp.). As regards the urine protein levels, each group (n=10) was evaluated using an average value and mean error, with a group administered only with a vehicle being control, and Dunnett's test was used for statistical analysis, wherein p value of 0.05 or below was determined to be significant.

[7] abbreviates: po, read-out: suppressing rate (%) of arthritis score.

`Cc1sc2c(c1C)C(c1ccc(NCc3ccccc3)cc1)=NCc1nnc(C)n1-2` [Example 335, 4-(4-benzylaminophenyl)-2,3,9-trimethyl-6H-thieno[3,2-f][1,2,4]triazolo[4,3-a][1,4]diazepine]: the median survival time in experiment [1] (30 mg/kg oral for 28 days from splenocyte injection) was found to be 36.5 days. Also, the inhibition in vivo at 10 mg/kg in experiment [2] (setting [7]) came out at 65.5%. For the same compound, the “suppressing rate (%) of auricular edema” value in experiment [3] (10 mg/kg oral for 3 days) worked out at 45.1%. In addition, the “suppressive action on edema (in words)” value in experiment [3] (10 mg/kg) was “significant suppressive action on edema”. For the same compound, in experiment [4], the IC50 came to 190 nM and the “CD28-dependent T cell growth suppressive action (in words)” value is “have a CD28-dependent T cell growth suppressive action”. For the same compound, the “suppressing rate (%) of EAE score” value in experiment [5] is listed as 53%.
Turning to `COC(=O)C[C@@H]1N=C(c2ccc(Cl)cc2)c2c(sc(C)c2C)-n2c(C)nnc21` [Example 1, Methyl (S)-{4-(4-chlorophenyl)-2,3,9-trimethyl-6H-thieno[3,2-f][1,2,4]triazolo[4,3-a][1,4]diazepin-6-yl}acetate], the inhibition in vivo at 3 mg/kg in experiment [2] (setting [7]) was determined as 66.1%. The “urine protein score (mean ± SE)” value in experiment [6] (1 mg/kg oral) amounted to 1.8 ± 0.3. Besides, the “urine protein score (mean ± SE)” value in experiment [6] (3 mg/kg oral) came out at 1.6 ± 0.2. In addition, the “effect on urine protein score (in words)” value in experiment [6] (at not less than 1 mg/kg, oral for 4 weeks, compared to the control group) is listed as “significantly decreased the urine protein score”. In addition, in experiment [4], the IC50 was found to be 38 nM and the “CD28-dependent T cell growth suppressive action (in words)” value was “have a CD28-dependent T cell growth suppressive action”.
As for `CCOC(=O)C[C@@H]1N=C(c2ccc(NCc3ccc(F)cc3)cc2)c2c(sc(C)c2C)-n2c(C)nnc21` [Example 163, Ethyl (S)-(4-{4-[(4-fluorophenyl)methylamino]phenyl}-2,3,9-trimethyl-6H-thieno[3,2-f][1,2,4]triazolo[4,3-a][1,4]diazepin-6-yl)acetate], in experiment [1] (10 mg/kg oral for 28 days from splenocyte injection), the median survival time turned out to be 19 days. Besides, in experiment [2] (3 mg/kg oral, 2 weeks from booster, average arthritis score at 35 days after primary immunization, P <0.05, read-out: suppressing rate (%) of arthritis score), the inhibition in vivo at 3 mg/kg came to 57.4%. The “suppressing rate (%) of auricular edema” value in experiment [3] (3 mg/kg oral for 3 days) was 44.5%. Moreover, in experiment [3] (3 mg/kg), the “suppressive action on edema (in words)” value was “significant suppressive action on edema”. Besides, in experiment [4], the IC50 amounted to 70 nM and the “CD28-dependent T cell growth suppressive action (in words)” value is recorded as “have a CD28-dependent T cell growth suppressive action”. The “suppressing rate (%) of EAE score” value in experiment [5] was determined as 60%.
